Experimental findings from patent US8785470B2, “Heterocyclic compounds and uses thereof” (Infinity Pharmaceuticals, Inc., priority 2011, dated 2014) are described below.

Molecules are shown by their SMILES. Like-named read-outs stand apart in the source and are kept apart here. Where only a bound is given, the exact number is not on record here.

For one experiment, the target named is T1, PI3Kα (Homo sapiens, UniProt P42336).
T1 construct: purchased Millipore Corporation 14-602-K
The experiment is described as follows: PI3-Kinase HTRF assay, PI3Kα. The experiment is classed as biochemical. The conditions noted are these: bins Greater than 10 μM and Greater than 1 μM to 10 μM; 10 μM ATP, PIP2 at 10 μM; read-out: IC50 P13Kα. An excerpt: A PI3-Kinase HTRF® assay kit (cat No. 33-016) purchased from Millipore Corporation was used to screen compounds provided herein. This assay used specific, high affinity binding of the GRPI pleckstrin homology (PH) domain to PIP3, the product of a Class 1A or 1B PI3 Kinase acting on its physiological substrate PIP2. During the detection phase of the assay, a complex was generated between the GST-tagged PH domain and biotinylated short chain PIP3. The biotinylated PIP3 and the GST-tagged PH domain recruited fluorophores (Streptavidin-Allophycocyanin and Europium-labeled anti-GST respectively) to form the fluorescence resonance energy transfer (FRET) architecture, generating a stable time-resolved FRET signal. The FRET complex was disrupted in a competitive manner by non-biotinylated PIP3, a product formed in the PI3 Kinase assay.
PI3 Kinase α, β, γ and δ activity was assayed using the PI3 Kinase HTRF® assay kit (catalogue No. 33-016) purchased from Millipore Corporation. Purified recombinant PI3Kα (catalogue No. 14-602-K), PI3Kβ (catalogue No. 14-603-K), PI3Kγ (catalogue No. 14-558-K) and PI3Kδ (catalogue No. 14-604-K) were obtained from Millipore Corporation. Purified recombinant PI3K enzyme was used to catalyze the phosphorylation of phosphatidylinositol 4,5-bisphosphate (PIP2 at 10 μM) to phosphatidylinositol 3,4,5-trisphosphate (PIP3) in the presence of 10 μM ATP. The assay was carried out in 384-well format and detected using a Perkin Elmer EnVision Xcite Multilabel Reader. Emission ratios were converted into percent inhibitions and imported into GraphPad Prism software. The concentration necessary to achieve inhibition of enzyme activity by 50% (IC50) was calculated using concentrations ranging from 20 μM to 0.1 nM (12-point curve). IC50 values were determined using a nonlinear regression model available in GraphPad Prism 5. […]

In a further experiment the test system is Balb/c splenic B cells. The experiment is described as follows: B cell activation and proliferation assay. It is filed as cell-based. The conditions noted are these: Mus musculus, read-out: B cell proliferation EC50. The protocol: The ability of one or more subject compounds to inhibit B cell activation and proliferation is determined according to standard procedures known in the art. For example, an in vitro cellular proliferation assay is established that measures the metabolic activity of live cells. The assay is performed in a 96 well microtiter plate using Alamar Blue reduction. Balb/c splenic B cells are purified over a Ficoll-Paque™ PLUS gradient followed by magnetic cell separation using a MACS B cell Isolation Kit (Miletenyi). Cells are plated in 90 μl at 50.000 cells/well in B Cell Media (RPMI+10% FBS+Penn/Strep+50 μME5 mM HEPES). A compound provided herein is diluted in B Cell Media and added in a 10 μl volume. Plates are incubated for 30 min at 37° C. and 5% CO2 (0.2% DMSO final concentration). A 50 μl B cell stimulation cocktail is then added containing either 10 μg/ml LPS or 5 μg/ml F(ab′)2 Donkey anti-mouse IgM plus 2 ng/ml recombinant mouse IL4 in B Cell Media. Plates are incubated for 72 hours at 37° C. and 5% CO2. A volume of 15 μL of Alamar Blue reagent is added to each well and plates are incubated for 5 hours at 37° C. and 5% CO2. Alamar Blue fluoresce is read at 560Ex/590Em, and IC50 or EC50 values are calculated using GraphPad Prism 5.

[1] abbreviates: column bins 1 μM to 100 nM (given as 100-1000) and Less than 100 nM.

T1 sequence (P42336 whole entry): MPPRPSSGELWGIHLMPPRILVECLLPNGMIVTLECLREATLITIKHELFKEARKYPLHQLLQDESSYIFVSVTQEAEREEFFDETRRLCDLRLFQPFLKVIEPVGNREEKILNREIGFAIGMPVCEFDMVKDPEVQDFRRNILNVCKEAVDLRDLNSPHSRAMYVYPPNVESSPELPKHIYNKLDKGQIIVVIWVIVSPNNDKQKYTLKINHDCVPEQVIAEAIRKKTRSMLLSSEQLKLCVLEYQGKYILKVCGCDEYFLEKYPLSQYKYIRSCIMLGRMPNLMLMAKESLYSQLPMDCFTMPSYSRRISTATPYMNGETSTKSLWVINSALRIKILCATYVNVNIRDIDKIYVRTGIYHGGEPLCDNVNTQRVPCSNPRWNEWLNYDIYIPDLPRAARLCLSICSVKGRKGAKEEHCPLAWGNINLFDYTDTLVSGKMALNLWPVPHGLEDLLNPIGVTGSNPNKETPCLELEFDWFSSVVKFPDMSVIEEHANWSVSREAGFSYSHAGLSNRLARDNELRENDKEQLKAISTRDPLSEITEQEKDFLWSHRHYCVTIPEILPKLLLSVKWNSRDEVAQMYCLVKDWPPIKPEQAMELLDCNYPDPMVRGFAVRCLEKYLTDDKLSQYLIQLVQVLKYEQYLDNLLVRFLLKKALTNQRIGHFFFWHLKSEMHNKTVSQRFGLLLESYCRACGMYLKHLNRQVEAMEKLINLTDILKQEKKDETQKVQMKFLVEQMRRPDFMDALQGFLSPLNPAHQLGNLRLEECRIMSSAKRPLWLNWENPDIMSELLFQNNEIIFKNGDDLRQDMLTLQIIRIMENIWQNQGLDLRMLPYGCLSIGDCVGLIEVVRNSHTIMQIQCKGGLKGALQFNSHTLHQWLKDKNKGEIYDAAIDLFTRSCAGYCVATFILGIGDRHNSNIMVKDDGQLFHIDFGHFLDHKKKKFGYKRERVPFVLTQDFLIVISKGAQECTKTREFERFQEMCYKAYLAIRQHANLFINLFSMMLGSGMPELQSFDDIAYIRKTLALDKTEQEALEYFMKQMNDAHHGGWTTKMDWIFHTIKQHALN
T1 sequence (P27986 whole entry partner): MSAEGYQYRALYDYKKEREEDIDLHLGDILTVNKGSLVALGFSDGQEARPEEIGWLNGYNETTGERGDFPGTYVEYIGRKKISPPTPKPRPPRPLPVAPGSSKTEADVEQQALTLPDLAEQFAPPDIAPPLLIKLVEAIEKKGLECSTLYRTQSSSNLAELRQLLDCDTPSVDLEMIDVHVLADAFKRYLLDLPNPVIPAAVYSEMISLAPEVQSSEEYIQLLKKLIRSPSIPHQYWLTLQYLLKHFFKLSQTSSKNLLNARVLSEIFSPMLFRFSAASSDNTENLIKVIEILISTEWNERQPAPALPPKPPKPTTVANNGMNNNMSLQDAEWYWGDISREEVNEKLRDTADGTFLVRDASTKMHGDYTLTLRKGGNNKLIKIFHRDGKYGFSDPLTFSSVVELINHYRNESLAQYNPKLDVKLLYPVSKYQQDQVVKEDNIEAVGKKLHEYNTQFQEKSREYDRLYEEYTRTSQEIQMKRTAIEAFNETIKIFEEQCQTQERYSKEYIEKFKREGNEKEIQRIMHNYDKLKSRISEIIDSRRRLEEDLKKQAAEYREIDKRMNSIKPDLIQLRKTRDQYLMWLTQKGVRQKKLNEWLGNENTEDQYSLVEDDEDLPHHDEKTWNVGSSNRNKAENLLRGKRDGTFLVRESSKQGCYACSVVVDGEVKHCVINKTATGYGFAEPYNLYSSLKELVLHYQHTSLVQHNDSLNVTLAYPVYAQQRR

In the case of `C[C@H](Nc1nc(N)ncc1C#N)c1cc2cccc(Cl)c2c(=O)n1-c1ccccc1` [Compound 8, (S)-2-amino-4-((1-(8-chloro-1-oxo-2-phenyl-1,2-dihydroisoquinolin-3-yl)ethyl)amino)pyrimidine-5-carbonitrile], the IC50 at PI3Kα lay in the range of 1 to 10 µM. The EC50 in the experiment with Balb/c splenic B cells (setting [1]) was less than 0.1 µM.
In the case of `COc1cncc(-c2cccc3cc([C@H](C)Nc4nc(N)ncc4C#N)n(-c4ccccc4)c(=O)c23)c1` [Compound 9, (S)-2-amino-4-((1-(8-(5-methoxypyridin-3-yl)-1-oxo-2-phenyl-1,2-dihydroisoquinolin-3-yl)ethyl)amino)pyrimidine-5-carbonitrile], in the experiment with Balb/c splenic B cells (setting [1]), the EC50 is less than 0.1 µM.
Still for that read-out and setting: under `COc1ncc(-c2cccc3cc([C@H](C)Nc4nc(N)ncc4C(F)(F)F)n(-c4ccccc4)c(=O)c23)cn1` [Compound 12] stands less than 0.1 µM.
In the case of `Cc1cccc2cc([C@H](C)Nc3nc(N)ncc3C#N)n(-c3cccc(F)c3)c(=O)c12` [Compound 15], the IC50 at PI3Kα was in the range of 1 to 10 µM. For the same compound, the EC50 in the experiment with Balb/c splenic B cells (setting [1]) was less than 0.1 µM.
The like results for `C[C@H](Nc1nc(N)ncc1C#N)c1cc2cccc(Cl)c2c(=O)n1-c1cccc(F)c1` [Compound 18] were, in that order, 1 to 10 µM and less than 0.1 µM.
For `Cc1ncc(-c2cccc3cc([C@H](C)Nc4nc(N)ncc4C#N)n(-c4cccc(F)c4)c(=O)c23)cn1` [Compound 20], the IC50 at PI3Kα is 1 to 10 µM. In addition, the EC50 in the experiment with Balb/c splenic B cells (setting [1]) was less than 0.1 µM.
For the compound `COc1ncc(-c2cccc3cc([C@H](C)Nc4nc(N)ncc4C#N)n(-c4cccc(F)c4)c(=O)c23)cn1` [Compound 22], the EC50 in the experiment on Balb/c splenic B cells (setting [1]) is less than 0.1 µM.
Same read-out and setting: under `C[C@H](Nc1nc(N)ncc1C#N)c1cc2cccc(-c3cnc4[nH]ccc4c3)c2c(=O)n1-c1cccc(F)c1` [Compound 25] stands less than 0.1 µM; under `COc1ncc(-c2cccc3cc([C@H](C)Nc4nc(N)ncc4C(F)(F)F)n(-c4cccc(F)c4)c(=O)c23)cn1` [Compound 31], less than 0.1 µM.
For `C[C@H](Nc1nc(N)ncc1C#N)c1cc2cccc(-c3cccc(F)c3)c2c(=O)n1-c1ccccc1` [Compound 33], the IC50 at PI3Kα lay within 1 to 10 µM.
Regarding `C[C@H](Nc1nc(N)ncc1C#N)c1cc2cccc(-c3cnc4[nH]ccc4c3)c2c(=O)n1-c1ccccc1` [Compound 47], in the experiment with Balb/c splenic B cells (setting [1]), the EC50 was less than 0.1 µM.
`C[C@H](Nc1nc(N)ncc1C#N)c1cc2cccc(-c3cnc4ccccc4c3)c2c(=O)n1-c1ccccc1` [Compound 50]: the EC50 in the experiment with Balb/c splenic B cells (setting [1]) is less than 0.1 µM.
Still for that read-out and setting: next, `Cc1ncc(-c2cccc3nc([C@H](C)Nc4nc(N)ncc4C#N)n(-c4ccccc4)c(=O)c23)cn1` [Compound 63, (S)-2-amino-4-((1-(5-(2-methylpyrimidin-5-yl)-4-oxo-3-phenyl-3,4-dihydroquinazolin-2-yl)ethyl)amino)pyrimidine-5-carbonitrile]: less than 0.1 µM.
Consider `COc1cncc(-c2cccc3nc([C@H](C)Nc4nc(N)ncc4C#N)n(-c4ccccc4)c(=O)c23)c1` [Compound 65], for which the IC50 on PI3Kα fell in the range of 1 to 10 µM.
For the compound `Nc1nccc(Cl)n1` [Compound 79, 2-amino-4-chloro-pyrimidine], the EC50 in the experiment on Balb/c splenic B cells (setting [1]) is less than 0.1 µM.
Regarding `Cc1nc(N)nc(N[C@@H](C)c2cc3cccc(Cl)c3c(=O)n2-c2ccccc2)c1C#N` [Compound 89, (S)-2-amino-4-(1-(8-chloro-1-oxo-2-phenyl-1,2-dihydroisoquinolin-3-yl)ethylamino)-6-methylpyrimidine-5-carbonitrile], the EC50 in the experiment with Balb/c splenic B cells (setting [1]) is less than 0.1 µM.
Take `Cc1cc(N[C@@H](C)c2cc3cccc(Cl)c3c(=O)n2-c2ccccc2)nc(N)n1` [Compound 92, (S)-3-(1-((2-amino-6-methylpyrimidin-4-yl)amino)ethyl)-8-chloro-2-phenylisoquinolin-1(2H)-one]: the EC50 in the experiment on Balb/c splenic B cells (setting [1]) was in the range of 0.1 to 1 µM.
Take `C[C@H](Nc1nc(N)ncc1C#N)c1cc2cccc(-c3cncc(N(C)C)c3)c2c(=O)n1-c1ccccc1` [Compound 96]: the EC50 with Balb/c splenic B cells (setting [1]) was less than 0.1 µM.
On the same count and under the same terms, next, `COc1cncc(-c2cccc3cc([C@H](C)Nc4nc(N)ncc4C#N)n(C4CC4)c(=O)c23)c1` [Compound 106]: less than 0.1 µM.
Take `COc1cc(-c2cccc3cc([C@H](C)Nc4nc(N)ncc4C#N)n(C4CC4)c(=O)c23)ccn1` [Compound 107]: the EC50 in the experiment with Balb/c splenic B cells (setting [1]) was less than 0.1 µM.
As for `COc1cc(-c2cccc3cc([C@H](C)Nc4nc(N)ncc4C(=O)N(C)C)n(-c4ccccc4)c(=O)c23)ccn1` [Compound 112], the EC50 in the experiment on Balb/c splenic B cells (setting [1]) is less than 0.1 µM.
Same read-out and setting: under `C[C@H](Nc1ncnc(N)c1[N+](=O)[O-])c1cc2cccc(Cl)c2c(=O)n1-c1ccccc1` [Compound 129] stands less than 0.1 µM.
The same measure, in the same setting: next, `C[C@H](Nc1nc(N)ncc1C#N)c1cc2cccc(-c3ccnc(O)c3)c2c(=O)n1-c1ccccc1` [Compound 130]: less than 0.1 µM.
In the case of `COc1cc(-c2cccc3cc([C@H](C)Nc4nc(N)ncc4-c4cccnc4)n(-c4ccccc4)c(=O)c23)ccn1` [Compound 133], the IC50 at PI3Kα was 1 to 10 µM.
`C[C@H](Nc1nc(N)ncc1C#N)c1cc2cccc(Oc3ccccc3)c2c(=O)n1-c1ccccc1` [Compound 151]: the EC50 in the experiment on Balb/c splenic B cells (setting [1]) is less than 0.1 µM.
As to `COc1cc(-c2cccc3cc([C@H](C)Nc4nc(N)ncc4-c4ccc(O)c(F)c4)n(-c4ccccc4)c(=O)c23)ccn1` [Compound 159], the EC50 in the experiment with Balb/c splenic B cells (setting [1]) was less than 0.1 µM.
Same read-out and setting: next, `COc1cc(-c2cccc3cc([C@H](C)Nc4nc(N)ncc4-c4cc(O)cc(F)c4)n(-c4ccccc4)c(=O)c23)ccn1` [Compound 161]: 0.1 to 1 µM.
With `COc1cc(-c2cccc3cc([C@H](C)Nc4nc(N)ncc4-c4ccc(F)c(O)c4)n(-c4ccccc4)c(=O)c23)ccn1` [Compound 163], in the experiment on Balb/c splenic B cells (setting [1]), the EC50 is 0.1 to 1 µM.
Consider `C[C@H](Nc1nc(N)ncc1C#N)c1cc2cccc(C#CCCC(=O)N3CCOCC3)c2c(=O)n1-c1ccccc1` [Compound 193], for which the EC50 in the experiment on Balb/c splenic B cells (setting [1]) is less than 0.1 µM.
Turning to `C[C@H](Nc1nc(N)ncc1C(=O)N1CCC1)c1cc2cccc(-c3cnn(C)c3)c2c(=O)n1-c1ccccc1` [Compound 204], the EC50 in the experiment with Balb/c splenic B cells is 1 to 10 µM.
`COc1nc(-c2cnc(N)nc2N[C@@H](C)c2cc3cccc(Cl)c3c(=O)n2-c2ccccc2)cs1` [Compound 223]: the EC50 with Balb/c splenic B cells is less than 0.1 µM.
For the compound `C[C@H](Nc1nc(N)ncc1C#N)c1cc2cccc(Cl)c2c(=O)n1-c1ccc(F)cc1F` [Compound 255], the IC50 on PI3Kα fell in the range of 1 to 10 µM.
For `C[C@H](Nc1nc(N)ncc1C#N)c1cc2cccc(Cl)c2c(=O)n1-c1cc(F)ccc1F` [Compound 264], the IC50 on PI3Kα lay in the range of 1 to 10 µM.
For the compound `C[C@H](Nc1nc(N)ncc1C#N)c1cc2cccc(Cl)c2c(=O)n1-c1ccccc1F` [Compound 267], the IC50 on PI3Kα was 1 to 10 µM.
On to `C[C@H](Nc1nc(N)ncc1C#N)c1cc2cccc(Cl)c2c(=O)n1C1CCCC1` [Compound 297], for which the EC50 in the experiment on Balb/c splenic B cells (setting [1]) is less than 0.1 µM.
Consider `C[C@H](Nc1nc(N)ncc1C#N)c1cc2cccc(Cl)c2c(=O)n1-c1cccnc1` [Compound 306], for which, in the experiment with Balb/c splenic B cells (setting [1]), the EC50 was less than 0.1 µM.
As for `Cc1ncc(-c2cnc(N)nc2N[C@@H](C)c2cc3cccc(Cl)c3c(=O)n2-c2ccccc2)s1` [Compound 372], in the experiment on Balb/c splenic B cells (setting [1]), the EC50 is less than 0.1 µM.
On the same count and under the same terms, under `COc1cc(-c2cccc3cc([C@@H](C)Nc4nc(N)ncc4C#N)n(-c4ccccc4)c(=O)c23)ccn1` [Compound 380] stands less than 0.1 µM.
Consider `C[C@H](Nc1cc(N)ncc1C(N)=O)c1cc2cccc(Cl)c2c(=O)n1-c1ccccc1` [Compound 431], for which, in the experiment on Balb/c splenic B cells (setting [1]), the EC50 is less than 0.1 µM.
Still for that read-out and setting: under `COc1cc(-c2cccc3cc([C@H](C)Nc4nc(N)ncc4C(=O)N4CC(F)(F)C4)n(-c4ccccc4)c(=O)c23)ccn1` [Compound 432] stands 0.1 to 1 µM.
